For series [1], the system named is MV4-11. Format: cell-based. To be noted: Homo sapiens, 72 h, Cell Titer Glo.
The next series relates to CMS. Nature of the series: Secondary dose-response HTS, Cell Titer Glo. Format: cell-based, human. To be noted: Homo sapiens; secondary HTS, 72 h, average of triplicate; read-out: EC50 CMS. (In general: ATP-based viability assays read luminescence as a measure of living cells.)
For series [2], the system named is Mll-PTD/wt:Flt3ITD/ITD secondary transplants. In words: In vivo efficacy, survival. The arrangement: species or system mice. To be noted: for Median survival: i.p.
The subject of a further series is U937. In words: Secondary dose-response HTS, Cell Titer Glo. Format: cell-based, human. The conditions noted are these: Homo sapiens, U-937; secondary HTS, 72 h, average of triplicate; read-out: EC50 U937.
Series [3] has as its system CBFA2T3-GLIS2/JAK2V617F-induced AMKL model. Nature of the series: In vivo efficacy, survival. Also on record: species or system mice. The conditions noted are these: CBFA2T3-GLIS2/JAK2V617F-Luc+ quaternary transplants, i.p.
The next series deals with THP-1. It is filed as cell-based. To be noted: Homo sapiens, 72 h, Cell Titer Glo.
In a further series the test system is AML cell lines. The conditions noted are these: human, 5 min, 1 µM.
For a further series, the system named is CHRF288-11. It is filed as cell-based. To be noted: Homo sapiens; 72 h, Cell Titer Glo; read-out: IC50 CHRF288-11.
The test system of the next series is CMK. Nature of the series: cells. The arrangement: species or system AML cell lines (8); Secondary HTS, 10-point dose-response in triplicate, Cell Titer Glo viability, four-parameter fit EC50. To be noted: Homo sapiens, CMK, 72 h, read-out: CMK.
Series [4] concerns MV4-11. In words: cells. To be noted: Homo sapiens, MV4-11, 72 h, read-out: MV4-11. Also on record: species or system AML cell lines (8); Secondary HTS, 10-point dose-response in triplicate, Cell Titer Glo viability, four-parameter fit EC50.
Series [5] relates to panel of 8 AML cell lines. Nature of the series: Secondary dose-response HTS, whole panel. Format: cell-based, human. The conditions noted are these: Homo sapiens; all cell lines; read-out: potency across subtypes in the secondary HTS.

Structures are written as SMILES.

1 compound from PMC6522510 (Nature Communications, 2019) can be followed below.

Regarding `Nc1ccn([C@@H]2O[C@H](CO)[C@@H](O)C2(F)F)c(=O)n1` [Gemcitabine, gemcitabine], the IC50 in the series on MV4-11 [1] was 3.2 nM; with THP-1 it was 3.5 nM; in the series with CHRF288-11 it was 0.4 nM. Further, the EC50 in the series with CMS was 30 nM; in the series with U937, 10 nM; in the series with CMK, 8.4 nM; in the series with MV4-11 [4], 2.1 nM; in series [5] it was below 65 nM. Further, the Median survival is 49 days in [2] (3 mg kg−1 daily x 5 days), 52 days in series [2] (120 mg kg−1 q3d (only 4 doses received)), 91 days in series [3] (3 mg kg−1 daily x 5 days) and above 125 days in series [3] (120 mg kg−1 q3d). Also, the “tolerability of the intermittent MTD” value in series [2] (120 mg kg−1 q3d) is listed as “not well tolerated”. Further, the “intracellular uptake, gemcitabine relative to cytarabine” value in the series with AML cell lines is 1.2–3.6 fold.

As usually defined, the IC50 is the concentration needed to halve the response being measured.
